Data as given in patent publication US4783461A, “3,6-disubstituted triazolo [3,4-A]phthalazine derivatives” (Gruppo Lepetit S.p.A., priority 1983, dated 1988).

Columns and labels:
[1] = target: rat brain benzodiazepine receptors (3H-diazepam receptor); assay: benzodiazepine-receptor binding test in vitro (inhibition of specific 3H-diazepam binding to rat brain membranes); details: 3H-diazepam displacement, read-out: inhibition constant Ki (Ki = IC50/(1+C/KD)) for specific 3H-diazepam binding
From the text: The pharmacological properties of the compounds of the present invention were first investigated by submitting some representative members of this class to the benzodiazepine-receptor binding-test in vitro.

[2] = test system: rats; assay: conflict test in rats (punished responding, Vogel method as modified by Lippa); assay type: in vivo; details: Rattus norvegicus, ip, 1 h, i.p., tested 60 minutes after administration, read-out: minimal effective dose (MED) significantly increasing the number of shocks versus controls
Protocol: The ability of the compounds of the present invention to increase punished responding in animals in a conflict situation, a procedure with high validity for predicting the anxiolytic effect of drugs, was assessed by testing these compounds in rats according to the method described by J. R. Vogel, B. Beer, E. D. Clody in Psychopharmacologia 21, 1-7 (1971) as modified by A. S. Lippa et al., in "Anxiolytics, Industrial Pharmacology",Vol. 3, Futura Publishing, 1979, pages 41-81. Briefly, rats are deprived for water for 48 hours and deprived of food for 20 hours prior to testing. Sixty minutes after administration of the test compound each rat is placed in an especially equipped cage. A glucose solution is available from a tap located in the rear of the cage. A constant pulsating shocking current is connected between the grid floor and the tap. Each rat is allowed 20 seconds of non-shocked drinking, then cycles of 5 seconds shock-off and 5 seconds shock-on began. During the shock-on period each lick on the tap is accompanied by shock. The number of shocks received by each animal is recorded and minimal effective doses are determined.

## COCCOCc1nn2c(-c3ccc(OC)cc3)nnc2c2ccccc12 [Example 1, 6-[(2-Methoxyethoxy)methyl]-3-(4-methoxyphenyl)-1,2,4-triazolo[3,4-a]phthalazine]
[1]
  Ki: 20 nM
[2]
  minimal effective dose: 5 mg/kg

## COc1ccc(-c2nnc3c4ccccc4c(CN4CCCC4)nn23)cc1 [Example 2, 3-(4-Methoxyphenyl)-6-[(1-pyrrolidinyl)methyl]-1,2,4-triazolo[3,4-a]phthalazine]
[1]
  Ki: 150 nM
